Measurements: paper PMC6274122, “Antibacterial Activity and Cytotoxicity of Silver(I) Complexes of Pyridine and (Benz)Imidazole Derivatives. X-ray Crystal Structure of [Ag(2,6-di(CH2OH)py)2]NO3” (Molecules, 2016)
Where two headings read alike, the source gives them in different places.

Columns and labels:
[1] = Broth microdilution MIC of free ligands, strain not specified; assay type: cell-based; conditions: Proteus hauseri, ATCC 13315 / ATCC 15442 / ATCC 25922; free ligands tested up to 500 mg/L
Experimental: (§1) The antimicrobial susceptibility testing of synthesized complexes, free ligands, and references compounds (AgNO3 and AgSD) was performed against three Gram-negative strains: Eschericha coli ATCC 25922, Proteus hauseri ATCC 13315, and Pseudomanos aeruginosa ATCC 15442. The minimum inhibitory concentration (MIC) and minimum bactericidal concentration (MBC) were determined by a modified broth microdilution method according to the recommendation of Clinical and Laboratory Standards Institute (CLSI M07-A8). In the experiments the Mueller-Hinton broth was used, the final organism density was about 5 × 10^5 CFU/mL and the tests were performed 20 h at 37 °C. The studied compounds were dissolved in water (1, 3, 4, 6, and the ligands [except 2-CH2OHbim]) or in DMSO (2, 5, and 2-CH2OHbim), and the appropriate amounts were added to samples (to biotic controls was added pure solvent). The compounds were tested in concentration ranging from 0 mg/L to 100 mg/L, except free ligands which were tested up to 500 mg/L.

[2] = test system: Escherichia coli ATCC 25922; assay: Broth microdilution MIC/MBC (CLSI M07-A8), E. coli; assay type: cell-based; conditions: for MBC (minimum bactericidal concentration): E. coli ATCC 25992; for MIC (minimum inhibitory concentration): Mueller-Hinton broth, 20 h at 37 °C, triplicate (SD = 0)
Experimental: as §1

[3] = test system: Proteus hauseri ATCC 13315; assay: Broth microdilution MIC/MBC (CLSI M07-A8), P. hauseri; assay type: cell-based; conditions: for MBC (minimum bactericidal concentration): P. hauseri ATCC 13315; for MIC (minimum inhibitory concentration): P. hauseri, Mueller-Hinton broth, 20 h at 37 °C, triplicate (SD = 0)
Experimental: as §1

[4] = test system: Pseudomonas aeruginosa ATCC 15442; assay: Broth microdilution MIC/MBC (CLSI M07-A8), P. aeruginosa; assay type: cell-based; conditions: for MBC (minimum bactericidal concentration): P. aeruginosa ATCC 15442; for MIC (minimum inhibitory concentration): Mueller-Hinton broth, 20 h at 37 °C, triplicate (SD = 0)
Experimental: as §1

E. coli ATCC 8739 = test system: E. coli ATCC 8739; set-up: method as in PMID 24218046; conditions: cited from earlier work
P. aeruginosa ATCC 27853 = test system: P. aeruginosa ATCC 27853; set-up: method as in PMID 24218046; conditions: cited from earlier work
[5] = test system: Escherichia coli ATCC 25922; set-up: method as in PMID 25846722; conditions: cited from earlier work
[6] = test system: Proteus hauseri ATCC 13315; set-up: method as in PMID 25846722; conditions: cited from earlier work
[7] = test system: Pseudomonas aeruginosa ATCC 15442; set-up: method as in PMID 25846722; conditions: cited from earlier work
[8] = test system: B16 (murine melanoma) cells; assay: MTT cytotoxicity assay, B16 cells; assay type: cell-based; conditions: 72 h incubation, three independent experiments, read-out: IC50 (concentration causing 50% reduction of cellular viability)
Experimental: The B16 (murine melanoma) cells and C3H10T1/2 (mouse fibroblast) cells were seeded 7 × 10^3 (B16) and 3 × 10^4 (10T1/2) per well/24 well plate into a medium containing DMEM GlutaMAX (Thermo Fisher Scientific, Waltham, MA USA), 10% bovine serum (Lonza, San Diego, CA, USA) added, and Antibiotic Antimicotic Solution 1:100 (Sigma-Aldrich). The plates were stored in a humidified incubator at 37 °C, 5% CO2. After 24 h, the cells were treated with the following compounds: compounds 1–6, free ligands, AgNO3, and AgSD (except control cells—wells without tested compound). Silver complexes 1, 3, 4, 6, and AgNO3 were dissolved in water. Complexes 2, 5, and AgSD are DMSO-soluble. Next, all chemicals were diluted into water to make a concentration 1, 0.1, 0.01 mg/mL and as a working solution were added to the medium. After 72 h of incubation, the cells were washed and incubated with 0.25 mg/mL MTT (Sigma-Aldrich) solution and were incubated for another 3 h. Isopropanol was added to dissolve the formazan crystals. Absorbance at 540 and 690 nm was read using Epoch Software version 2.01.14 (Bio-Tek, Winooski, VT, USA).

[9] = test system: three Gram-negative strains: Eschericha coli ATCC 25922, Proteus hauseri ATCC 13315, and Pseudomanos aeruginosa ATCC 15442; assay: Broth microdilution MIC of free ligands, strain not specified; assay type: cell-based; conditions: free ligands tested up to 500 mg/L
Experimental: as §1

B16 cells = test system: B16 cells; set-up: method as in doi:10.1039/a702757e; conditions: cited from earlier work

Row | Compound | MBC (minimum bactericidal concentration) [2] [µM] | MIC (minimum inhibitory concentration) ([2]; E. coli) [µM] | MBC (minimum bactericidal concentration) [3] [µM] | MIC (minimum inhibitory concentration) [3] [µM] | MBC (minimum bactericidal concentration) [4] [µM] | MIC (minimum inhibitory concentration) ([4]; P. aeruginosa) [µM] | further results
1 | OCc1ccncc1 [Complex 4-CH2OHpy] |  |  |  |  |  |  | MIC [1]: > 500 µg/mL
2 | CCOP(=O)(OCC)OCc1nc2ccccc2[nH]1.CCOP(=O)(OCC)OCc1nc2ccccc2[nH]1.O=[N+]([O-])O.[Ag] [Complex 2, [Ag(2-bimOpe)2]NO3] | 54 | 27 | 41 | 27 | 27 | 14 | MIC (E. coli ATCC 8739): 21.2 µM; MIC (P. aeruginosa ATCC 27853): 5.3 µM
3 | Cc1ncc([N+](=O)[O-])n1CCO.Cc1ncc([N+](=O)[O-])n1CCO.O=[N+]([O-])[O-].[Ag+] [Complex 6, [Ag(MTZ)2NO3]] |  |  |  |  |  |  | MBC (minimum bactericidal concentration) ([5]; E. coli ATCC 25992): 98 µM; MIC (minimum inhibitory concentration) ([5]; E. coli): 98 µM; MBC (minimum bactericidal concentration) ([6]; P. hauseri ATCC 13315): 117 µM; MIC (minimum inhibitory concentration) ([6]; P. hauseri): 98 µM; MBC (minimum bactericidal concentration) ([7]; P. aeruginosa ATCC 15442): 117 µM; MIC (minimum inhibitory concentration) ([7]; P. aeruginosa): 59 µM
4 | O=[N+]([O-])[O-].[Ag+] [AgNO3, silver nitrate, reference compound] | 177 | 118 | 177 | 118 | 59 | 59 | IC50 [8]: 9.74 µM
5 | O=[N+]([O-])[O-].OCc1ccncc1.OCc1ccncc1.[Ag+] [Complex 4, [Ag(4-CH2OHpy)2]NO3] | 77 | 52 | 77 | 52 | 52 | 26 | 
6 | CCOP(=O)(OCC)OCc1nc2ccccc2[nH]1 [Complex 2-bimOpe] |  |  |  |  |  |  | MIC values of the free ligands [9]: > 500 mg/L^−1
7 | O=[N+]([O-])[O-].OCc1cccc(CO)n1.OCc1cccc(CO)n1.[Ag+] [Complex 3, [Ag(2,6-di(CH2OH)py)2]NO3] | 67 | 67 | 112 | 67 | 67 | 45 | 
8 | OCc1cccc(CO)n1 [2,6-di(CH2OH)py, 2,6-di(hydroxymethyl)-pyridine] |  |  |  |  |  |  | MIC [1]: > 500 µg/mL
9 | CCOP(=O)(OCC)OCc1ccncc1 [Complex 4-pmOpe] |  |  |  |  |  |  | MIC values of the free ligands [9]: > 500 mg/L^−1
10 | O=[N+]([O-])[O-].OCc1nc2ccccc2[nH]1.OCc1nc2ccccc2[nH]1.[Ag+] [Complex 5, [Ag(2-CH2OHbim)2]NO3] | 21 | 21 | 43 | 21 | 21 | 21 | growth-inhibiting concentration, fold lower than that of AgSD ([2]; E. coli, MIC relative to AgSD): 2.6 fold; growth-inhibiting concentration, fold lower than that of AgSD ([4]; P. aeruginosa, MIC relative to AgSD): 2.6 fold
11 | N.N.[Cl][Pt][Cl] [cis-DDP, cisplatin] |  |  |  |  |  |  | IC50 [8]: 7.87 µM; IC50 (B16 cells): 0.9 µM
12 | {[Ag(4-pmOpe)]NO3}n [Complex 1] | 145 | 96 | 120 | 72 | 72 | 48 | IC50 [8]: 13 µM; MIC (E. coli ATCC 8739): 37.6 µM; MIC (P. aeruginosa ATCC 27853): 37.6 µM
